Measured values published in ChEMBL document CHEMBL5352476, “A comprehensive overview of Artemisinin and its derivatives as anticancer agents” (Eur J Med Chem, 2023).
pIC50: −log10 of the molar value.

Columns and labels:
[1] = Cytotoxicity against human CCD 19Lu cells assessed as inhibition of cell growth; type: toxicity, cell-based
Mus musculus = experiment: Antitumor activity against human RL95-2 cells xenografted in BALB/c nude mouse assessed as tumor growth inhibition rate at 5.0 mg/kg, ip administered three times a week for 4 weeks relative to control; type: functional; conditions: RL95-2, 672 h
RL95-2 = experiment: Antiproliferative activity against human RL95-2 cells assessed as inhibition of cell growth by MTT assay; type: functional, cell-based; conditions: pooled result: one value given for 6 cell lines, strains, targets or settings
HepG2 = experiment: Antiproliferative activity against human HepG2 cells assessed as inhibition of cell growth by MTT assay; type: functional, cell-based
HeLa = experiment: Antiproliferative activity against human HeLa cells assessed as inhibition of cell growth; type: functional, cell-based
SK-BR-3 = experiment: Antiproliferative activity against human SK-BR-3 cells assessed as inhibition of cell growth; type: functional, cell-based
HCT-116 = experiment: Antiproliferative activity against human HCT-116 cells assessed as inhibition of cell growth; type: functional, cell-based
MDA-MB-231 [2] = experiment: Antiproliferative activity against human MDA-MB-231 cells assessed as inhibition of cell growth; type: functional, cell-based
[3] = Cytotoxicity against human WI-38 cells assessed as inhibition of cell growth incubated for 72 hrs by MTT assay; type: toxicity, cell-based
MDA-MB-231 [4] = experiment: Antiproliferative activity against human MDA-MB-231 cells assessed as inhibition of cell growth incubated for 72 hrs by MTT assay; type: functional, cell-based; conditions: MDA-MB-231, 72 h
A549 = experiment: Antiproliferative activity against human A549 cells assessed as inhibition of cell growth incubated for 72 hrs by MTT assay; type: functional, cell-based; conditions: A549, 72 h
U-87 MG [5] = experiment: Antiproliferative activity against human U-87 MG cells assessed as inhibition of cell growth incubated for 72 hrs by MTT assay; type: functional, cell-based, U-87MG ATCC
HT-29 = experiment: Antiproliferative activity against human HT-29 cells assessed as inhibition of cell growth incubated for 72 hrs by MTT assay; type: functional, cell-based; conditions: HT-29, 72 h
HL-60 = experiment: Antiproliferative activity against human HL-60 cells assessed as inhibition of cell growth incubated for 72 hrs by MTT assay; type: functional, cell-based; conditions: HL-60, 72 h
NCI-H460 = experiment: Antiproliferative activity against human NCI-H460 cells assessed as inhibition of cell growth incubated for 72 hrs by MTT assay; type: functional, cell-based; conditions: NCI-H460, 72 h
RPMI-7951 = experiment: Antiproliferative activity against human RPMI-7951 cells assessed as inhibition of cell growth incubated for 24 hrs by MTT assay; type: functional, cell-based; conditions: RPMI-7951, 24 h
U-87 MG [6] = experiment: Antiproliferative activity against human U87 cells assessed as inhibition of cell growth incubated for 24 hrs by MTT assay; type: functional, cell-based, U-87MG ATCC
U-87 MG [7] = experiment: Antiproliferative activity against human U87 cells assessed as inhibition of cell growth incubated for 72 hrs by MTT assay; type: functional, cell-based, U-87MG ATCC

CCCCCCCCCCCCCCNC(=O)C[C@H]1O[C@@H]2O[C@@]3(C)CC[C@H]4[C@H](C)CC[C@@H]([C@H]1C)[C@@]24OO3
pIC50 [1]: 6.34

C[C@H]1[C@@H](OCCNCCO[C@H]2O[C@@H]3O[C@@]4(C)CC[C@H]5[C@H](C)CC[C@@H]([C@H]2C)[C@@]35OO4)O[C@@H]2O[C@@]3(C)CC[C@H]4[C@H](C)CC[C@@H]1[C@@]24OO3
inhibition in vivo at 5 mg/kg (Mus musculus): 49.9%
pIC50 (RL95-2): 5.94

CCCCCCCCCCCCNC(=O)C[C@H]1O[C@@H]2O[C@@]3(C)CC[C@H]4[C@H](C)CC[C@@H]([C@H]1C)[C@@]24OO3
pIC50 (HepG2): 5.92

C[C@H]1[C@@H](CCCOC(=O)NCCC[P+](c2ccccc2)(c2ccccc2)c2ccccc2)O[C@@H]2O[C@@]3(C)CC[C@H]4[C@H](C)CC[C@@H]1[C@@]24OO3
pIC50 (HeLa): 6.09
pIC50 (SK-BR-3): 6.09
pIC50 (HCT-116): 6.09
pIC50 (MDA-MB-231 [2]): 6.09

C[C@@H]1CC[C@H]2[C@@H](C)C(OCCNC(=O)c3ccc(COc4ccc(/C=C/S(=O)(=O)Nc5ccc(OC(F)(F)F)cc5)cc4)cc3)O[C@@H]3O[C@@]4(C)CC[C@@H]1[C@]32OO4 (stereo partly drawn)
IC50 at 72 h [3]: 90 nM
pIC50 (MDA-MB-231 [4]): 7.05
pIC50 (A549): 7.05
pIC50 (U-87 MG [5]): 7.05
pIC50 (HT-29): 7.05
pIC50 (HL-60): 7.05
pIC50 (NCI-H460): 7.05

COC(=O)C(Cc1ccc(OC(=O)CCC(=O)O[C@@H]2O[C@@H]3O[C@@]4(C)CC[C@H]5[C@H](C)CC[C@@H]([C@H]2C)[C@@]35OO4)cc1)NC(=O)CCC(=O)O[C@@H]1O[C@@H]2O[C@@]3(C)CC[C@H]4[C@H](C)CC[C@@H]([C@H]1C)[C@@]24OO3 (stereo partly drawn)
pIC50 (RPMI-7951): 5.75

CCCCCCCCCCCC[C@@H](O)C[C@H]1O[C@@H]2O[C@@]3(C)CC[C@H]4[C@H](C)CC[C@@H]([C@H]1C)[C@@]24OO3
pIC50 (HepG2): 5.36

C[C@@H]1CC[C@H]2[C@@H](C)C(OCCOc3ccc(/C=C/S(=O)(=O)Nc4ccc(OC(F)(F)F)cc4)cc3)O[C@@H]3O[C@@]4(C)CC[C@@H]1[C@]32OO4 (stereo partly drawn)
IC50 at 72 h [3]: 50 nM
pIC50 (MDA-MB-231 [4]): 7.30
pIC50 (A549): 7.30
pIC50 (U-87 MG [5]): 7.30
pIC50 (HT-29): 7.30
pIC50 (HL-60): 7.30
pIC50 (NCI-H460): 7.30

C[C@H]1[C@H](OC(=O)CCC(=O)OCc2ccc(OC(=O)CCC(=O)O[C@@H]3O[C@@H]4O[C@@]5(C)CC[C@H]6[C@H](C)CC[C@@H]([C@H]3C)[C@@]46OO5)cc2)O[C@@H]2O[C@@]3(C)CC[C@H]4[C@H](C)CC[C@@H]1[C@@]24OO3
pIC50 (RPMI-7951): 7.30

CCCCCCCCCCCC[C@H](O)C[C@H]1O[C@@H]2O[C@@]3(C)CC[C@H]4[C@H](C)CC[C@@H]([C@H]1C)[C@@]24OO3
pIC50 (HepG2): 5.55

C[C@H]1[C@@H](OCCCN=C=S)O[C@@H]2O[C@@]3(C)CC[C@H]4[C@H](C)CC[C@@H]1[C@@]24OO3
pIC50 (U-87 MG [6]): 5.13
pIC50 (U-87 MG [7]): 5.13
